What was measured:
[1] = system: P. falciparum 3D7 cells; conditions: P. falciparum 3D7; downloaded from ChEMBL ref F.J. Gamo et al., Nature 2010; cited from earlier work
[2] = system: HepG2 cells; conditions: HepG2 cells; downloaded from ChEMBL ref F.J. Gamo et al., Nature 2010; cited from earlier work
[3] = system: 3D7 PFLDH; set-up: method as in F.J. Gamo et al., Nature 2010; conditions: downloaded from ChEMBL ref F.J. Gamo et al., Nature 2010; cited from earlier work
[4] = target: T1, Plasmodium falciparum calcium-dependent protein kinase 1 (CDPK1) (Plasmodium falciparum, UniProt P62344); assay: CDPK1 Kinase-Glo ATP-consumption screen and dose-response; type: biochemical; conditions: hits below 1 uM; read-out: CDPK1 IC50
T1 construct: 6-Histidine (N); made in house
Method: Biochemical assays were performed in white 384-well plates (Nunc). Liquid transfers were done manually with 8-channel pipets. Compounds were initially tested in a single-point screen (final concentration 1 μM). […] The catalytic activity of each kinase was considered proportional to ATP consumed, as determined from measurements of residual [ATP] with the luciferase-based reagent Kinase-Glo (Promega) following incubation. Luminescence (proportional to residual [ATP]) was measured on the plate readers FLx800 (BioTek Instruments, Winooski, VT, USA) and MicroBeta^2 (PerkinElmer, Waltham, MA, USA). Incubation times were chosen to ensure near-complete ATP depletion in the absence of inhibition, thus maximizing the difference in signal between inhibited and uninhibited wells.
40 μM Syntide-2 was used as a substrate; BKI-1 [14] was used as a control inhibitor, while reaction mixtures lacking Syntide-2 were included as an additional negative control. Incubation time was 90 minutes. Reactions were terminated by adding excess EGTA (5 mM), which sequesters Ca^2+ and halts calcium-dependent kinase activity.

[5] = system: DD2; set-up: method as in F.J. Gamo et al., Nature 2010; conditions: P. falciparum Dd2; downloaded from ChEMBL ref F.J. Gamo et al., Nature 2010; cited from earlier work

T1 sequence (P62344 whole entry): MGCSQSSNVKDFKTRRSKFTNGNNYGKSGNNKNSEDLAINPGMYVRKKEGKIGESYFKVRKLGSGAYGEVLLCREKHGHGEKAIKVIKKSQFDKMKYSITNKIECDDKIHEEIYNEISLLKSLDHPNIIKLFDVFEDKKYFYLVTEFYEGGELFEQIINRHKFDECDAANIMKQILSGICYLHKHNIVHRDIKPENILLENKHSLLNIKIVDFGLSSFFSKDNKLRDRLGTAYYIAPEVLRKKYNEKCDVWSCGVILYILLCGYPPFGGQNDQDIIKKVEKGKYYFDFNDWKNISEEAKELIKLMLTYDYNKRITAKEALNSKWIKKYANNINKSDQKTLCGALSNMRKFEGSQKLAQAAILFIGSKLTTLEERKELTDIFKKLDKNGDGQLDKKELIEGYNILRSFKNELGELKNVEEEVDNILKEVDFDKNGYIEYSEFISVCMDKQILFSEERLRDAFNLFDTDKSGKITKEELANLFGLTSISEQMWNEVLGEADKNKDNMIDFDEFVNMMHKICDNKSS

SMILES	IC50 [4] [nM]	PCT_IHB_3D7 [1]	pXC50_3D7 [1]	PCT_INHIB_HEPG2 [2]	PCT_INHIB_3D7_PFLDH [3]	PCT_INHB_DD2 [5]
CCn1c(-c2nc(-c3ccnc(N4CCN(C)CC4)c3)cnc2N)nc2cc(S(C)(=O)=O)ccc21 [TCMDC-134155]	654	100	6.089	44	0	76
COc1ccc2nc(-c3cc(-c4ccc(NC(C)=O)cc4)cnc3N)[nH]c2c1 [TCMDC-135365]	501	93	5.906	55	0	73
COc1cccc(Nc2nccc(-c3c(-c4cccc(NC(=O)c5c(F)cccc5F)c4)nn4ccccc34)n2)c1 [TCMDC-135508]	87	98	6.749	35	0	98
CCn1c(-c2nonc2N)nc2c(-c3cccc(NC(=O)Nc4ccc(Cl)cc4)c3)ncc(OCCCN)c21.O=C(O)C(F)(F)F [TCMDC-136152]	44	96	6.082	26	0	72
Cl.Oc1cc(-c2nc(-c3ccccc3)[nH]c2-c2ccncc2)ccc1Cl [TCMDC-139660]	975	96	6.089	64	0	91
COc1ccc(CNCC(C)(C)c2nc(-c3ccc(Cl)c(O)c3)c(-c3ccncc3)[nH]2)cc1.Cl [TCMDC-140538]	186	100	6.447	76	1	99
CC(C)(CNCc1ccc(Cl)cc1)c1nc(-c2ccc(Cl)c(O)c2)c(-c2ccncc2)[nH]1.Cl [TCMDC-140548]	257	100	6.322	86	5	98
COc1ccc(C(=O)NCC(C)(C)c2nc(-c3ccc(Cl)c(O)c3)c(-c3ccncc3)[nH]2)cc1OCCN(C(C)C)C(C)C.Cl [TCMDC-140736]	387	100	6.192	62	4	96
CNCC(C)(C)c1nc(-c2ccc(Cl)c(O)c2)c(-c2ccncc2)[nH]1.Cl [TCMDC-140762]	49	98	6.133	46	0	96
CC(C)(CNC(=O)C1CCN(Cc2ccoc2)CC1)c1nc(-c2ccc(Cl)c(O)c2)c(-c2ccncc2)[nH]1.Cl [TCMDC-140954]	425	93	6.062	0	0	66
CC(C)(CNC(=O)[C@H]1CCCCN1)c1nc(-c2ccc(Cl)c(O)c2)c(-c2ccncc2)[nH]1.Cl [TCMDC-141070]	164	98	6.139	6	0	98
CC(C)(CNC(=O)C1CCN(CCOCc2ccccc2)CC1)c1nc(-c2ccc(Cl)c(O)c2)c(-c2ccncc2)[nH]1.Cl [TCMDC-141122]	734	100	6.208	11	0	18
CC(C)(CNC(=O)C1CCN(CCOc2ccc(F)c(F)c2)CC1)c1nc(-c2ccc(Cl)c(O)c2)c(-c2ccncc2)[nH]1.Cl [TCMDC-141136]	664	100	6.5	41	0	19

The next lines start with results.

IC50 [4] [nM]	SMILES	PCT_IHB_3D7 [1]	pXC50_3D7 [1]	PCT_INHIB_HEPG2 [2]	PCT_INHIB_3D7_PFLDH [3]	PCT_INHB_DD2 [5]
145	CCNC(=O)Nc1ccc(-c2cnc(N)c(-c3nc4ccc(OC)cc4[nH]3)c2)cc1 [TCMDC-135321]	100	6.302	51	1	43
11	CS(=O)(=O)Cc1ccc(Nc2nccc(-c3c(-c4cccc(NC(=O)c5c(F)cccc5F)c4)nn4ncccc34)n2)cc1 [TCMDC-135681]	97	6.79	86	1	93
190	CC(C)(CNCc1ccccc1)c1nc(-c2ccc(Cl)c(O)c2)c(-c2ccncc2)[nH]1.Cl [TCMDC-140389]	100	6.27	77	0	99
451	CC(C)(CNCc1ccc(F)c(F)c1)c1nc(-c2ccc(Cl)c(O)c2)c(-c2ccncc2)[nH]1.Cl [TCMDC-140672]	100	6.181	74	2	89
159	COc1cc(-c2nc(C(C)(C)CN)[nH]c2-c2ccncc2)ccc1Br.Cl [TCMDC-140674]	97	6.114	17	1	95
144	CC(C)(NCc1ncc[nH]1)c1nc(-c2ccc(Cl)c(O)c2)c(-c2ccncc2)[nH]1.Cl [TCMDC-140686]	95	–	42	3	97
275	COc1cccc(CNCC(C)(C)c2nc(-c3ccc(Cl)c(O)c3)c(-c3ccncc3)[nH]2)c1.Cl [TCMDC-140687]	100	6.159	74	0	98
539	CC(C)(CNCc1ccc(Cl)c(Cl)c1)c1nc(-c2ccc(Cl)c(O)c2)c(-c2ccncc2)[nH]1.Cl [TCMDC-140688]	100	6.121	43	0	97
213	CN1CCC=C(C(=O)NCC(C)(C)c2nc(-c3ccc(Cl)c(O)c3)c(-c3ccncc3)[nH]2)C1.Cl [TCMDC-140700]	96	6	39	0	96
438	CC(C)(CNCc1ccc(OC(F)(F)F)cc1)c1nc(-c2ccc(Cl)c(O)c2)c(-c2ccncc2)[nH]1.Cl [TCMDC-140708]	100	6.263	38	0	99
7.49	CC(C)(CN)c1nc(-c2ccc(Cl)c(O)c2)c(-c2ccnc(N)n2)[nH]1 [TCMDC-141019]	95	6.0083	34	0	95
179	CC(C)(CNC(=O)[C@H]1CCCN1)c1nc(-c2ccc(Cl)c(O)c2)c(-c2ccncc2)[nH]1.Cl [TCMDC-141060]	86	5.895	0	0	95
192	CC(C)(CNC(=O)[C@@H]1CCCCN1)c1nc(-c2ccc(Cl)c(O)c2)c(-c2ccncc2)[nH]1.Cl [TCMDC-141079]	97	6.075	0	0	96
471	CC(C)(CNC(=O)C1CCN(CCOc2ccc(Cl)cc2)CC1)c1nc(-c2ccc(Cl)c(O)c2)c(-c2ccncc2)[nH]1.Cl [TCMDC-141124]	100	6.149	40	7	5
347	CC(C)(CNC(=O)C1CCN(Cc2ccc(Cl)cc2)CC1)c1nc(-c2ccc(Cl)c(O)c2)c(-c2ccncc2)[nH]1.Cl [TCMDC-141138]	100	6.206	36	0	83
846	Cl.Oc1cc(-c2nc(C3(CNCc4ccc(Cl)cc4)CCCCC3)[nH]c2-c2ccncc2)ccc1Cl [TCMDC-141155]	100	6.903	35	2	99

Reference: publication PMC4774911, “Biochemical Screening of Five Protein Kinases from Plasmodium falciparum against 14,000 Cell-Active Compounds” (PLoS ONE, 2016)
